Legend:
U937 cells [1] = experiment: EC50 of necroptosis inhibition in U937 cells (TSZ-induced, CellTiter-Glo); type: cell-based; details: Homo sapiens, U-937; TSZ (hTNF-α, SM-164, Z-VAD-FMK) 20 hours; 10 concentration points; read-out: EC50 intervals of necroptosis inhibition in U937 cells
Protocol: (§1) The biological activity of RIPK1 inhibitors was further evaluated in the inhibition of necroptosis in U937 cells. U937 cell line was purchased from Huatuo Biotechnology and stored in liquid nitrogen. U937 cells were revived before the experiment and cultured in RPMI-1640 medium (supplemented with 10% fetal bovine serum, 100 U/mL penicillin and 100 μg/mL streptomycin) at 37° C., 5% CO2. The activity was further evaluated by the cellular ATP level detected by the Promega CellTiter-Glo 2.0 Assay cell viability assay kit (Catalog No.: G9242).
The experimental method was briefly described as below. U937 cells in the logarithmic growth phase were collected by centrifugation. Cells were diluted to the cell density of 5×10^5 cells/mL with RPMI 1640 medium (supplemented with 10% fetal bovine serum, 100 U/mL penicillin and 100 μg/mL streptomycin). Cell suspension was added to a white sterile 384-well cell culture plate at 15 μL/well. The test compound was dissolved in DMSO to prepare a 10 mM stock solution. The compound was serially diluted with culture medium at a ratio of 1:3, for a total of 10 concentration points. A control with the same DMSO volume was set, with two replicates for each concentration. The diluted compound was added to the 384-well cell culture plate containing cells at 2.5 μL/well and incubated at 37° C., 5% CO2 for 15 minutes. Z-VAD-FMK (Biyuntian, catalog number: C1202-5 mg) was dissolved in DMSO to prepare a 20 mM stock solution. SM-164 (Biyuntian, catalog number: SC0114-10 mM) was dissolved in DMSO to prepare a 10 mM stock solution and diluted to 0.1 mM. hTNF-α (Sino Biological Inc., catalog number: 10602-HNAE) was dissolved in sterile water to 10 μg/mL. RPMI 1640 medium (supplemented with 10% fetal bovine serum, 100 U/mL penicillin and 100 μg/mL streptomycin) was used to prepare the TSZ mixture, containing 133.3 μM Z-VAD-FMK, 33.3 ng/ml hTNF-α and 0.3 μM SM-164. After 15 minutes' coculture of compounds and cells, 7.5 μL of TSZ mixture was added to each well, mixed evenly, and cultured at 37° C., 5% CO2 for 20 hours. After 20 hours, the culture plate was removed and placed at room temperature for 30 minutes. Then, 10 μL of CellTiter-Glo reagent pre-equilibrated at room temperature was added to each well and incubated. After 10 minutes' incubation at room temperature in the dark, the chemiluminescence were measured using a microplate reader. The inhibition rate was calculated as Inh %=(1−(no TSZ-TSZ & compound)/(no TSZ-TSZ))×100. The EC50 was obtained by fitting the nonlinear regression curve log [inhibitor] vs. response−variable slope (four parameters) in GraphPad Prism.

U937 cells [2] = experiment: Inhibition rate of compound (1 μM) on necroptosis of U937 cells (TSZ-induced, CellTiter-Glo); type: cell-based; details: TSZ (hTNF-α, SM-164, Z-VAD-FMK) 20 hours
Protocol: as §1
The experimental method was briefly described as below. U937 cells in the logarithmic growth phase were collected by centrifugation. Cells were diluted at the density of 5×10^5 cells/mL with RPMI 1640 medium (supplemented with 10% fetal bovine serum, 100 U/mL penicillin and 100 μg/mL streptomycin). The cell suspension was added to a white sterile 384-well cell culture plate at 15 μL/well. The test compound was dissolved in DMSO to prepare a 10 mM stock solution and diluted to 10 μM with culture medium. At the same time, a control with the same DMSO volume was set up. Two replicates were added for each concentration. The diluted compound was added to the 384-well cell culture plate containing cells at 2.5 µL/well and incubated at 37° C., 5% CO2 for 15 minutes. Z-VAD-FMK (Biyuntian, catalog number: C1202-5 mg) was dissolved in DMSO to prepare a 20 mM stock solution. SM-164 (Biyuntian, catalog number: SC0114-10 mM) was dissolved in DMSO to prepare a 10 mM stock solution and diluted to 0.1 mM. hTNF-α (Sino Biological Inc., catalog number: 10602-HNAE) was dissolved in sterile water to 10 μg/mL. RPMI 1640 medium (supplemented with 10% fetal bovine serum, 100 U/mL penicillin and 100 μg/mL streptomycin) was used to prepare the TSZ mixture, containing 133.3 μM Z-VAD-FMK, 33.3 ng/ml hTNF-α and 0.3 μM SM-164. After 15 minutes' coculture of compounds and cells, 7.5 μL of TSZ mixture was added to each well, mixed evenly, and cultured at 37° C., 5% CO2 for 20 hours. After 20 hours, the culture plate was removed and placed at room temperature for 30 minutes. 10 μL of CellTiter-Glo reagent pre-equilibrated at room temperature was added to each well and incubated for 10 minutes from light. The chemiluminescence was read by a microplate reader. The inhibition rate was calculated as Inh %=(1−(no TSZ-TSZ & compound)/(no TSZ-TSZ))×100.

RIPK1 kinase = target: T1, RIPK1 kinase (Homo sapiens, UniProt Q13546); experiment: In vitro RIPK1 kinase activity assay (ADP-Glo), inhibition by compounds at 1 μM; type: biochemical; details: compound 1 μM; ATP 10 μM; MBP substrate 100 μg/mL; read-out: RIPK1 kinase activity inhibition rate range
T1 construct: purchased Promega VA7593
T1 sequence (Q13546 1-671): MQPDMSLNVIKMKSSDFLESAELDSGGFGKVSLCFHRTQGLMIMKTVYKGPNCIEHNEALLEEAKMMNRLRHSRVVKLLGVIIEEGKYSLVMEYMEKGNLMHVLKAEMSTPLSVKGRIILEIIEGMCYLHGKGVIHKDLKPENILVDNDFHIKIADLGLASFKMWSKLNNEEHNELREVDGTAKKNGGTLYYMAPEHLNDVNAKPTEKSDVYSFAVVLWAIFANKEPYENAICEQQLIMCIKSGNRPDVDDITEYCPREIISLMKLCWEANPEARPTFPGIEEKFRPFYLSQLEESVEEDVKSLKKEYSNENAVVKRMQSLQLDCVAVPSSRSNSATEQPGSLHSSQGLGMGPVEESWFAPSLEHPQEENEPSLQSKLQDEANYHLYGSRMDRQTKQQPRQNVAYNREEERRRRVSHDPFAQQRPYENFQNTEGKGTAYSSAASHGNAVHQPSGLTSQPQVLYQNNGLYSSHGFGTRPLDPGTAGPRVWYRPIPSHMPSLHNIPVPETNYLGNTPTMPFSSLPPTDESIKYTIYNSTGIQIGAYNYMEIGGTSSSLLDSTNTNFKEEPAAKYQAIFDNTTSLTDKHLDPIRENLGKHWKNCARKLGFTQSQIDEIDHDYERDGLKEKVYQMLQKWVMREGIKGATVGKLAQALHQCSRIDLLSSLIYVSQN
Protocol: RIPK1 kinase activity was assayed using the ADP-Glo assay and RIPK1 kinase reaction system (Promega, catalog number: VA7593). The RIPK1 kinase activity assay was performed according to the Promega kit manual.
The experimental method was briefly described as below. The concentration of RIPK1 kinase in the RIPK1 kinase reaction system was determined by kinase titration and S/B10. Compounds were diluted with 1× kinase buffer D (1% DMSO), and 1 μL of 100 μM compound DMSO stock solution was added to 19 μL 1× kinase buffer D. RIPK1 kinase was diluted with 1× kinase buffer D. 2.5×ATP/substrate was diluted with 1× kinase buffer D. The final concentration of ATP in the kinase reaction system was 10 μM, and the final concentration of MBP substrate was 100 μg/mL. 1 μL of diluted compound and 2 μL of diluted RIPK1 kinase were mixed, incubated at room temperature for 15 minutes, 2 μL of 2.5×ATP/substrate was added, mixed, and incubated at room temperature for 1 hour. 5 μL of ADP-Glo reagent was added to each well and incubated at room temperature for 1 hour. 10 μL of ADP detection reagent was added to each well and incubated at room temperature for another 0.5-1 hour. The chemiluminescent signal was read by a microplate reader and the inhibition rate of kinase activity was calculated.

| inhibition at 1 µM (RIPK1 kinase) [%] | Compound | EC50 (U937 cells [1]) [nM] | Inhibition rate range of compounds (1 μM) on U937 cell necroptosis (U937 cells [2]) |
| --- | --- | --- | --- |
|  | CN1C(=O)[C@@H](NC(=O)C(=O)NCCc2ccccc2)COc2cc(C#CC3CC3)ccc21 [Example 4, (S)—N^1-(8-(cyclopropylethynyl)-5-methyl-4-oxo-2,3,4,5-tetrahydrobenzo[b][1,4]oxazepin-3-yl)-N^2-phenethyloxalamide] | 500 to 2000 | B (B: 50-89%) |
|  | CN1C(=O)C(NC(=O)C(=O)NCCc2ccccc2)CCc2cc(C#CC3CC3)ccc21 (centres unmarked) [Example 64, N^1-(7-(cyclopropylethynyl)-1-methyl-2-oxo-2,3,4,5-tetrahydro-1H-benzo[b]azepin-3-yl)-N^2-phenethyloxalamide] | 500 to 2000 | B (B: 50-89%) |
|  | CN1C(=O)C(NC(=O)C(=O)NCCc2ccccc2)CCc2ccccc21 (centres unmarked) [Example 67, N^1-(1-methyl-2-oxo-2,3,4,5-tetrahydro-1H-benzo[b]azepin-3-yl)-N^2-phenethyloxalamide] | 100 to 500 | A (A: ≥90%) |
|  | CN1C(=O)[C@@H](NC(=O)C(=O)NCCc2ccccc2)COc2ccc(C#CC3CNC3)cc21 [Example 90, (S)—N^1-(7-(azetidin-3-ylethynyl)-5-methyl-4-oxo-2,3,4,5-tetrahydrobenzo[b][1,4]oxazepin-3-yl)-N^2-phenethyloxalamide] | 100 to 500 | B (B: 50-89%) |
| 25 to 49 | CN1C(=O)[C@@H](NC(=O)C(=O)NCCc2cccc(Cl)c2)COc2ccccc21 [Example 101, (S)—N^1-(3-chlorophenethyl)-N^2-(5-methyl-4-oxo-2,3,4,5-tetrahydrobenzo[b][1,4]oxazepin-3-yl)oxalamide] |  |  |
|  | CN1C(=O)[C@@H](NC(=O)C(=O)NCCc2cccc(F)c2)COc2ccc(C#CC3(O)CCCCC3)cc21 [Example 112, (S)—N^1-(3-fluorophenethyl)-N^2-(7-((1-hydroxycyclohexyl)ethynyl)-5-methyl-4-oxo-2,3,4,5-tetrahydrobenzo[b][1,4]oxazepin-3-yl)oxalamide] | < 100 | A (A: ≥90%) |
|  | C[C@H](NC(=O)C(=O)N[C@H]1COc2ccc(C#CCN3CC[C@@H](O)C3)cc2N(C)C1=O)c1ccccc1 [Example 127, N^1-((S)-7-(3-((R)-3-hydroxypyrrolidin-1-yl)prop-1-yn-1-yl)-5-methyl-4-oxo-2,3,4,5-tetrahydrobenzo[b][1,4]oxazepin-3-yl)-N^2-((S)-1-phenylethyl)oxalamide] | 100 to 500 | B (B: 50-89%) |
|  | C[C@H](NC(=O)C(=O)N[C@H]1COc2ccc(C#CCN3CC[C@H](O)C3)cc2N(C)C1=O)c1ccccc1 [Example 129, N^1-((S)-7-(3-((S)-3-hydroxypyrrolidin-1-yl)prop-1-yn-1-yl)-5-methyl-4-oxo-2,3,4,5-tetrahydrobenzo[b][1,4]oxazepin-3-yl)-N^2-((S)-1-phenylethyl)oxalamide] | 100 to 500 | B (B: 50-89%) |
|  | C[C@H](NC(=O)C(=O)N[C@H]1COc2ccc(C#CC3(O)COC3)cc2N(C)C1=O)c1ccccc1 [Example 133, N^1-((S)-7-((3-hydroxyoxetan-3-yl)ethynyl)-5-methyl-4-oxo-2,3,4,5-tetrahydrobenzo[b][1,4]oxazepin-3-yl)-N^2-((S)-1-phenylethyl)oxalamide] | 100 to 500 | B (B: 50-89%) |
|  | C[C@H](NC(=O)C(=O)N[C@H]1COc2ccc(C#CCN3CCOCC3)cc2N(C)C1=O)c1ccccc1 [Example 141, N^1-((S)-5-methyl-7-(3-morpholinoprop-1-yn-1-yl)-4-oxo-2,3,4,5-tetrahydrobenzo[b][1,4]oxazepin-3-yl)-N^2-((S)-1-phenylethyl)oxalamide] | < 100 | A (A: ≥90%) |
|  | C[C@@H](NC(=O)C(=O)N[C@H]1COc2ccc(C#CC3CN(CCO)C3)cc2N(C)C1=O)c1ccccc1 [Example 150, N^1-((S)-7-((1-(2-hydroxyethyl)azetidin-3-yl)ethynyl)-5-methyl-4-oxo-2,3,4,5-tetrahydrobenzo[b][1,4]oxazepin-3-yl)-N^2-((R)-1-phenylethyl)oxalamide] | < 100 | A (A: ≥90%) |
|  | C[C@@H](NC(=O)C(=O)N[C@H]1CNc2ccc(C#CCN3CCOCC3)cc2N(C)C1=O)c1ccccc1 [Example 165, N^1-((S)-1-methyl-8-(3-morpholinoprop-1-yn-1-yl)-2-oxo-2,3,4,5-tetrahydro-1H-benzo[b][1,4]diazepin-3-yl)-N^2-((R)-1-phenylethyl)oxalamide] | < 100 | A (A: ≥90%) |

From patent publication US20250368633A1, “AZEPINE FUSED RING COMPOUND AS RIPK1 INHIBITOR AND USE THEREOF” (ARTIVILA BIOPHARMA, priority 2022, published 2025)
